Test results taken from the NIST ThermoML archive (doi:10.1021/acs.jced.8b00663).
Numbers after ± are expanded uncertainties.

Assays:
[1] = Molar enthalpy of transition or fusion; conditions: Crystal; DSC
[2] = Crystal; DTA

Molar enthalpy of transition or fusion [1]: 8.93 ± 0.406 kcal/mol | Normal melting temperature [2]: 149.00 ± 1.1 °C
Structure (SMILES): CCOC(=O)C1=C[C@]2(CC)CCCN3CCc4c(n1c1ccccc41)[C@@H]32 [vinpocetine]
